Measured values published in US12581252B2, “Substituted pyrrolo[3,4-b]pyridines as PI3K-α inhibitors” (Relay Therapeutics, Inc., priority 2020, dated 2026).

These compounds were tested against H1047R PIK3CA enzyme (Homo sapiens, UniProt P42336, H1047R) (assay: ADP-Glo Biochemical PIK3CA Kinase Assay).
Sequence of H1047R PIK3CA enzyme (P42336 whole entry H1047R): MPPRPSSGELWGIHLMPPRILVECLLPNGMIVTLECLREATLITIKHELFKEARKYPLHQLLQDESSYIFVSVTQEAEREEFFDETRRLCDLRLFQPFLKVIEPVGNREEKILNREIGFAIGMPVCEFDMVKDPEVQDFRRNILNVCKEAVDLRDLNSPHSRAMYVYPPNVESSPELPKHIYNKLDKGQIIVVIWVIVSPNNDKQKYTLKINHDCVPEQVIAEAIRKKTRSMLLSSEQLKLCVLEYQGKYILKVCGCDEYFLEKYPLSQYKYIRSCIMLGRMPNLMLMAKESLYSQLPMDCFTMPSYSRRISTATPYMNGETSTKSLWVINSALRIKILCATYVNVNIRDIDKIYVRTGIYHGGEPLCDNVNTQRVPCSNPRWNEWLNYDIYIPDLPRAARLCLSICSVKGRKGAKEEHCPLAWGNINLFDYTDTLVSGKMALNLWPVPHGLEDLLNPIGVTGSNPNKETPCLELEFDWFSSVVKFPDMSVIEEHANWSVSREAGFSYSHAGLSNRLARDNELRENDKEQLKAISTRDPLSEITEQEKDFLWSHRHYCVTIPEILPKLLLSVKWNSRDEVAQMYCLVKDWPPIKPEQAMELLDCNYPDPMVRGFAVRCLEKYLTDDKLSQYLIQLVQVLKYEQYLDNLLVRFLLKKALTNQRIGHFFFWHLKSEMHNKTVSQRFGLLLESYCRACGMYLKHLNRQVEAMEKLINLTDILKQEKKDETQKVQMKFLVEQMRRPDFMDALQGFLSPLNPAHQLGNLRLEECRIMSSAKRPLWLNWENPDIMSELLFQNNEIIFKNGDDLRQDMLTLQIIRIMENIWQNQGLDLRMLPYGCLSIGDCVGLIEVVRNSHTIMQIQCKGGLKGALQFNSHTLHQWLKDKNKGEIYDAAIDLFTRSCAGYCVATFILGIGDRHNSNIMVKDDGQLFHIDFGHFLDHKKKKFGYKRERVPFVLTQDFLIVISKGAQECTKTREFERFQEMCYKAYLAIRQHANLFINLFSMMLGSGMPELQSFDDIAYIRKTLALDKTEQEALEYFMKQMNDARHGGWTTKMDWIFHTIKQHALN
Sequence of H1047R PIK3CA enzyme (P27986 whole entry partner): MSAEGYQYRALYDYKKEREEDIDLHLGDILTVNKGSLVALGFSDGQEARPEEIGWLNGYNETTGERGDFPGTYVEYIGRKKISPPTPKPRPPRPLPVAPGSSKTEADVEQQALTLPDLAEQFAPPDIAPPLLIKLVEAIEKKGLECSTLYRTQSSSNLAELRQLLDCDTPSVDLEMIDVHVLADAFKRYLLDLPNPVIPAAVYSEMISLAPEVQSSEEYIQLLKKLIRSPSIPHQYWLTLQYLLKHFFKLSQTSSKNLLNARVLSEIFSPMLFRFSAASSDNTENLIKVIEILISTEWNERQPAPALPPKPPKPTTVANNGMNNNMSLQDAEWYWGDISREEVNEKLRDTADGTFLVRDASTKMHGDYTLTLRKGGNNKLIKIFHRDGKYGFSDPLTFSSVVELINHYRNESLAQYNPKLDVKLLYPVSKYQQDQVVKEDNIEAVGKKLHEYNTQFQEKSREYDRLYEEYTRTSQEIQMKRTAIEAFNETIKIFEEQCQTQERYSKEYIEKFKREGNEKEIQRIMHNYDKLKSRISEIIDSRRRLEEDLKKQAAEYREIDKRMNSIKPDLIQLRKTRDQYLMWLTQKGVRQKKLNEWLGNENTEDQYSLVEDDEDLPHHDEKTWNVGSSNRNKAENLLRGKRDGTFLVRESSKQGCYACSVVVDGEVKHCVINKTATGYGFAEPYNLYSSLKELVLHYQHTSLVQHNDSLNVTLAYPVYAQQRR

SMILES | IC50
O=C(CC1CCc2ccccc21)Nc1cc(Br)cc2c1C(c1cc(F)ccc1Cl)NC2=O (centres unmarked) [Compound I-599] | 10000 to 100000 nM
O=C1N[C@H](c2cc(F)ccc2Cl)c2c(NC(=O)N3C[C@@H](O)c4c3ccc(F)c4F)cccc21 (single isomer, unassigned) [Compound I-2311] | 1000 to 10000 nM
CC(C)(O)c1cc(NC(=O)c2cc(Cl)n3ccccc23)c2c(c1)C(=O)NC2c1cc(F)ccc1C(F)F (centres unmarked) [Compound I-267] | ≤ 100 nM
O=C(Nc1cc(-c2cnn3ncnc3c2)cc2c1[C@H](c1cc(F)ccc1Cl)NC2=O)c1cc(F)cc(C(F)(F)F)c1 [Compound I-1872] | ≤ 100 nM
O=C1NC(c2cc(F)ccc2Cl)c2c(NC(=O)C3(c4ccccc4)CCCC3)cc(Br)cc21 (centres unmarked) [Compound I-604] | 1000 to 10000 nM
Cn1c(Nc2cccc3c2C(c2cc(F)ccc2Cl)NC3=O)nnc1C1CC1 (centres unmarked) [Compound I-880] | 10000 to 100000 nM
N#Cc1cc(NC(=O)N2C[C@@H](O)c3cc(F)ccc32)c2c(c1)C(=O)N[C@H]2c1cc(F)ccc1Cl (single isomer, unassigned) [Compound I-2493] | 100 to 500 nM
CC(=O)N1CCC[C@H]1COc1cc(NC(=O)c2cc(F)cc(C(F)(F)F)c2)c2c(c1)C(=O)NC2c1cc(F)ccc1Cl (single isomer, unassigned) [Compound I-1466] | ≤ 100 nM
O=C1NC(c2cc(F)ccc2Cl)c2c(Nc3nccc4cccnc34)cc(Br)cc21 (centres unmarked) [Compound I-761] | 10000 to 100000 nM
O=C1N[C@H](c2cc(F)ccc2Cl)c2c(NC(=O)N3C[C@@](O)(C(F)(F)F)c4cc(F)ccc43)cc(C3COC3)cc21 (single isomer, unassigned) [Compound I-2654] | 1000 to 10000 nM
CN1C(=O)CCC1COc1cc(NC(=O)c2cc(F)cc(C(F)(F)F)c2)c2c(c1)C(=O)NC2c1cc(F)ccc1Cl (racemic) [Compound I-1347] | ≤ 100 nM
Cc1ccccc1[C@@H]1NC(=O)c2c(C(N)=O)ccc(NC(=O)c3cc(F)cc(C(F)(F)F)c3)c21 [Compound I-508] | ≤ 100 nM
Cc1ccccc1C1NC(=O)c2cccc(NC(=O)N3CCCc4ccccc43)c21 (centres unmarked) [Compound I-55] | 1000 to 10000 nM
O=C1N[C@H](c2cc(F)ccc2Cl)c2c(NC(=O)N3C[C@](O)(C(F)(F)F)c4ccccc43)cc(Cl)cc21 (single isomer, unassigned) [Compound I-2508] | 1000 to 10000 nM
O=C(Nc1cc(Br)cc2c1[C@@H](c1cc(F)ccc1Cl)NC2=O)N[C@]1(CC(F)(F)F)CCCOC1 (racemic) [Compound I-1961] | 10000 to 100000 nM
Cc1ncc(-c2cc(NC(=O)c3cc(F)cc(Cl)c3)c3c(c2)C(=O)N[C@H]3c2cc(F)ccc2Cl)cn1 [Compound I-896] | ≤ 100 nM
C[C@@H](C#N)Cn1cc(-c2cc(NC(=O)N3C[C@H](O)c4cc(F)ccc43)c3c(c2)C(=O)N[C@@H]3c2cc(F)ccc2Cl)cn1 (single isomer, unassigned) [Compound I-2501] | 100 to 500 nM
O=C(CC1CCC(O)CC1)Nc1cc(-c2ccc3ncnn3c2)cc2c1C(c1cc(F)ccc1Cl)NC2=O (centres unmarked) [Compound I-1913] | 10000 to 100000 nM
CN(Cc1cccc(O)c1)C(=O)Nc1cc(Br)cc2c1C(c1cc(F)ccc1Cl)NC2=O (centres unmarked) [Compound I-1382] | 10000 to 100000 nM
Cc1nccn1-c1cc(NC(=O)N2C[C@](O)(C(F)(F)F)c3cc(F)ccc32)c2c(c1)C(=O)N[C@@H]2c1cc(F)ccc1Cl (single isomer, unassigned) [Compound I-2662] | 1000 to 10000 nM
O=C1NC(c2ccccc2Cl)c2c(NC(=O)c3csc4ccccc34)ccnc21 (centres unmarked) [Compound I-9] | 100 to 500 nM

SMILES | IC50
O=C1NC(c2ncccc2Cl)c2c(NC(=O)c3csc4ccccc34)cccc21 (centres unmarked) [Compound I-57] | 1000 to 10000 nM
NC1CN(c2cc(NC(=O)c3cc(F)cc(C(F)(F)F)c3)c3c(n2)C(=O)NC3c2cc(F)ccc2Cl)C1 (centres unmarked) [Compound I-417] | 100 to 500 nM
O=C(Nc1cc(-c2cn[nH]c2)nc2c1[C@H](c1cc(F)ccc1Cl)NC2=O)c1cc(F)cc(Cl)c1 [Compound I-196] | ≤ 100 nM
O=C1N[C@H](c2cc(F)ccc2Cl)c2c(NC(=O)[C@@H]3CC[C@H](O)C3)cc(Br)cc21 (single isomer, unassigned) [Compound I-2105] | 10000 to 100000 nM
Cc1cccc(C2(C(=O)Nc3cc(Br)cc4c3C(c3cc(F)ccc3Cl)NC4=O)CCCC2)c1 (centres unmarked) [Compound I-1639] | 10000 to 100000 nM
O=C1NC(c2cc(F)ccc2Cl)c2c(Nc3cn4ccccc4n3)cc(-c3ccc4ncnn4c3)cc21 (centres unmarked) [Compound I-1668] | 1000 to 10000 nM
O=C(Nc1cc(CC2CCO2)cc2c1C(c1cc(F)ccc1Cl)NC2=O)c1cc(F)cc(C(F)(F)F)c1 (centres unmarked) [Compound I-1302] | ≤ 100 nM
O=C(Nc1cc(-c2ccc3ncnn3c2)nc2c1C(C1CCCCC1)NC2=O)c1cc(F)cc(C(F)(F)F)c1 (centres unmarked) [Compound I-1607] | 500 to 1000 nM
O=C(Nc1cc(NC2COC2)cc2c1[C@@H](c1cc(F)ccc1Cl)NC2=O)c1cc(F)cc(C(F)(F)F)c1 [Compound I-830] | 1000 to 10000 nM
O=C1NC(c2cc(F)ccc2Cl)c2c(NC(=O)N3CCCCCC3)cc(Br)cc21 (centres unmarked) [Compound I-577] | 10000 to 100000 nM
O=C1N[C@H](c2cc(F)ccc2Cl)c2c(NC(=O)N3C[C@](O)(C(F)(F)F)c4cc(F)ccc43)cc(F)cc21 (single isomer, unassigned) [Compound I-2631] | ≤ 100 nM
O=C1NC(c2cc(F)ccc2Cl)c2c(NC(=O)C3CCCc4ccccc43)cc(Br)cc21 (centres unmarked) [Compound I-631] | 1000 to 10000 nM
CN1C[C@H](COc2cc(NC(=O)c3cc(F)cc(C(F)(F)F)c3)c3c(c2)C(=O)N[C@H]3c2cc(F)ccc2Cl)CC1=O (single isomer, unassigned) [Compound I-1522] | ≤ 100 nM
O=C(Nc1cc(-c2cncc3ccccc23)cc2c1C(c1cc(F)ccc1Cl)NC2=O)c1cc(F)cc(C(F)(F)F)c1 (centres unmarked) [Compound I-852] | ≤ 100 nM
Cc1ccccc1C1NC(=O)c2cc(C(O)CO)cc(NC(=O)c3csc4ccccc34)c21 (mixture of isomers) [Compound I-139, N-[6-(1,2-Dihydroxyethyl)-3-(2-methylphenyl)-1-oxo-2,3-dihydro-1H-isoindol-4-yl]-1-benzothiophene-3-carboxamide] | ≤ 100 nM
O=C(Nc1cc(CCO)cc2c1C(c1cc(F)ccc1Cl)NC2=O)c1cc(F)cc(C(F)(F)F)c1 (centres unmarked) [Compound I-579] | ≤ 100 nM
O=C1NC(c2cc(F)ccc2Cl)c2c(Nc3ccncc3)cc(Br)cc21 (centres unmarked) [Compound I-2025] | 10000 to 100000 nM
Cc1nn(C)cc1-c1cc(NC(=O)c2cc(F)cc(Cl)c2)c2c(n1)C(=O)NC2c1cc(F)ccc1Cl (centres unmarked) [Compound I-380] | 100 to 500 nM
O=C(Nc1cc(-c2ccnn2CCO)cc2c1C(c1cc(F)ccc1Cl)NC2=O)c1cc(F)cc(C(F)(F)F)c1 (centres unmarked) [Compound I-1340] | ≤ 100 nM
O=C(Nc1cc(NC(=O)C2CCO2)cc2c1C(c1cc(F)ccc1Cl)NC2=O)c1cc(F)cc(C(F)(F)F)c1 (centres unmarked) [Compound I-361] | ≤ 100 nM
O=C(Nc1cc(-c2cnn(C3CC3)c2)cc2c1[C@@H](c1cc(F)ccc1Cl)NC2=O)c1cc(F)cc(C(F)(F)F)c1 (single isomer, unassigned) [Compound I-1021] | 10000 to 100000 nM

SMILES | IC50
CC(=O)COc1cc(NC(=O)c2cc(F)cc(C(F)(F)F)c2)c2c(c1)C(=O)NC2c1cc(F)ccc1Cl (centres unmarked) [Compound I-708] | ≤ 100 nM
O=C(Nc1cccc2c1C(c1ccc3cn[nH]c3c1)NC2=O)c1cc(F)cc(C(F)(F)F)c1 (centres unmarked) [Compound I-844] | 10000 to 100000 nM
O=C1N[C@H](c2cc(F)ccc2Cl)c2c(NC(=O)C3(c4cc(F)cc(C(F)(F)F)c4)CCCC3)cc(Br)cc21 [Compound I-2070] | 10000 to 100000 nM
O=C1NC(c2ccccc2Cl)c2c(NC(=O)c3cc(F)cc(C(F)(F)F)c3)cccc2O1 (centres unmarked) [Compound I-1274] | 500 to 1000 nM
O=C(Nc1cc(N2CC3(CCO3)C2)cc2c1C(c1cc(F)ccc1Cl)NC2=O)c1cc(F)cc(C(F)(F)F)c1 (centres unmarked) [Compound I-1310] | 100 to 500 nM
Cc1ccccc1C1NC(=O)c2cccc(NC(=O)c3nc(C)n4ccc(Cl)cc34)c21 (centres unmarked) [Compound I-277, 7-Chloro-N-(1-oxo-3-(o-tolyl)isoindolin-4-yl)-3-methylimidazo[1,5-a]pyridine-1-carboxamide] | 10000 to 100000 nM
O=C(Nc1cc(Nc2ccccc2)cc2c1C(c1cc(F)ccc1Cl)NC2=O)c1cc(F)cc(C(F)(F)F)c1 (centres unmarked) [Compound I-1213] | ≤ 100 nM
O=C(Nc1cccc2c1[C@@H](C1CCC(F)(F)CC1)NC2=O)c1cc(F)cc(C(F)(F)F)c1 [Compound I-2072] | 10000 to 100000 nM
O=C1NC(c2cc(F)ccc2Cl)c2c(NC(=O)N3CCc4ccccc43)ccnc21 (centres unmarked) [Compound I-257] | 500 to 1000 nM
[2H]c1nc2ccc(-c3cc(NC(=O)c4cc(F)cc(C(F)(F)F)c4)c4c(c3)C(=O)N[C@@H]4c3cc(F)ccc3Cl)cn2n1 (stereo in doubt) [Compound I-1786] | 100 to 500 nM
NS(=O)(=O)Cc1cc(NC(=O)c2cc(F)cc(C(F)(F)F)c2)c2c(c1)C(=O)NC2c1cc(F)ccc1Cl (centres unmarked) [Compound I-1367] | ≤ 100 nM
CN1CCN(C(=O)Nc2cc(Br)cc3c2C(c2cc(F)ccc2Cl)NC3=O)CC1(C)C (racemic) [Compound I-685] | 10000 to 100000 nM
O=C(Nc1cc(Br)cc2c1C(c1cc(F)ccc1Cl)NC2=O)c1ccc(F)cc1 (centres unmarked) [Compound I-525] | 10000 to 100000 nM
O=C1NC(c2cc(F)ccc2Cl)c2c1cc(-c1cnn(C(F)F)c1)cc2-c1cn2ccc(C(F)(F)F)cc2n1 (centres unmarked) [Compound I-2135] | 1000 to 10000 nM
O=C(Nc1cc(Br)cc2c1C(c1cc(F)ccc1Cl)NC2=O)c1cccc(C2CC2)c1 (centres unmarked) [Compound I-569] | 1000 to 10000 nM
O=C(Nc1cc(Br)cc2c1C(c1cc(F)ccc1Cl)NC2=O)c1cc(F)cc(CF)c1 (centres unmarked) [Compound I-1119] | 500 to 1000 nM
CSC(C)c1cc(NC(=O)c2cc(F)cc(C(F)(F)F)c2)c2c(c1)C(=O)NC2c1cc(F)ccc1Cl (racemic) [Compound I-1490] | ≤ 100 nM
C[C@@H](c1cc(NC(=O)c2cc(F)cc(C(F)(F)F)c2)c2c(c1)C(=O)N[C@@H]2c1cc(F)ccc1Cl)S(C)(=O)=O (single isomer, unassigned) [Compound I-1640] | 1000 to 10000 nM
O=C(Nc1cc(Br)cc2c1[C@H](c1cc(Cl)cc(F)c1F)NC2=O)c1cc(F)cc(C(F)(F)F)c1 [Compound I-786] | ≤ 100 nM
CC(c1cc(NC(=O)c2cc(F)cc(C(F)(F)F)c2)c2c(c1)C(=O)NC2c1cc(F)ccc1Cl)[S+](C)[O-] (racemic) [Compound I-1472] | 100 to 500 nM
